{"source": "ChEMBL document CHEMBL1129998", "about": "“Pharmacological options in the treatment of benign prostatic hyperplasia” (J Med Chem, 1997)", "key": {"[1]": {"molecular_target": "T1, 3-oxo-5-alpha-steroid 4-dehydrogenase 2 (Homo sapiens, UniProt P31213)", "T1 sequence (P31213 whole entry)": "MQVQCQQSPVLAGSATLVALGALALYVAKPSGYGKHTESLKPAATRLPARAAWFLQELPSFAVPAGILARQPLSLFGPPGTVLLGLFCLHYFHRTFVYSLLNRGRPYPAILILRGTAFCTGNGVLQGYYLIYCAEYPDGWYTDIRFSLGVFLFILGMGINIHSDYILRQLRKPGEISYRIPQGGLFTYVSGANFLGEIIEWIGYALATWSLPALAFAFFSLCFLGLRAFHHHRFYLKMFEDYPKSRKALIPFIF", "assay": "Inhibitory concentration on human 5-alpha reductase 2 (transfected SW-13 cells)"}, "Canis familiaris [2]": {"tested_on": "Canis familiaris", "assay": "50% reduction in intraurethral pressure (IUP) in response to hypogastric nerve stimulation or agonist (phenylephrine or norepinephrine) administration in anesthetized dog", "type": "functional", "settings": "Canis lupus familiaris; read-out: ID50 (the source's name)"}, "[3]": {"molecular_target": "T2, Alpha-1D adrenergic receptor (Homo sapiens, UniProt P25100)", "T2 sequence (P25100 whole entry)": "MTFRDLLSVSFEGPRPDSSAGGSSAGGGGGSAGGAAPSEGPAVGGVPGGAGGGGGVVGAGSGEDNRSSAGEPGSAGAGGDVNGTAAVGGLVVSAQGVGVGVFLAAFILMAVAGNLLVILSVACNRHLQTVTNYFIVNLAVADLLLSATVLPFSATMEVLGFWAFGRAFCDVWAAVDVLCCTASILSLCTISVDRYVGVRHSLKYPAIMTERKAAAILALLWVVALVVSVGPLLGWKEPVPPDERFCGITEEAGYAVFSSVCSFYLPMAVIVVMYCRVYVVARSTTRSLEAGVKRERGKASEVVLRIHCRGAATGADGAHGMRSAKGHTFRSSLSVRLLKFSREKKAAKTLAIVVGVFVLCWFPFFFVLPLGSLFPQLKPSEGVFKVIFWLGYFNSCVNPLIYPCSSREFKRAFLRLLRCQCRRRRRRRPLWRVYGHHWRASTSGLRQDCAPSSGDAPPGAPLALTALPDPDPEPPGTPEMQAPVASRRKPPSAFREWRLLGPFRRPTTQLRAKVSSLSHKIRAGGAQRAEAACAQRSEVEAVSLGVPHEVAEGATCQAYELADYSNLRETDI", "assay": "Binding affinity was tested on human Alpha-1D adrenergic receptor"}, "[4]": {"molecular_target": "T3, Alpha-1B adrenergic receptor (Homo sapiens, UniProt P35368)", "T3 sequence (P35368 whole entry)": "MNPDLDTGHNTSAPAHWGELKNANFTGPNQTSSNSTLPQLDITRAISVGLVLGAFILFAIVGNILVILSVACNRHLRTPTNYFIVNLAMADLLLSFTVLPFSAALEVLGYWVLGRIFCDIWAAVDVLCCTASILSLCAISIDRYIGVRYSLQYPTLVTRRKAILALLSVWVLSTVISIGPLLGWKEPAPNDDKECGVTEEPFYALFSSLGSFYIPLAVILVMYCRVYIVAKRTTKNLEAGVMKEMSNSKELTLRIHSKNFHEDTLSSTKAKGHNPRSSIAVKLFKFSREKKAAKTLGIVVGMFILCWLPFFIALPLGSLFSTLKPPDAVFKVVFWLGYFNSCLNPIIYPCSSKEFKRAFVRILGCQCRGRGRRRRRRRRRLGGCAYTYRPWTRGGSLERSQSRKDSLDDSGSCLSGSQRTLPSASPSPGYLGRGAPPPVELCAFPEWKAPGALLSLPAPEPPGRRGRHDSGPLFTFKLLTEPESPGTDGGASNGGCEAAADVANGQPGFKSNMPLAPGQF", "assay": "Binding affinity was tested on human Alpha-1B adrenergic receptor"}, "Canis familiaris [5]": {"tested_on": "Canis familiaris", "assay": "50% reduction in agonist induced pressor response in anesthetized dog", "type": "functional", "settings": "Canis lupus familiaris; read-out: ID50 (the source's name)"}, "[6]": {"assay": "Ratio of intraurethral pressure to that of pressor response in dog.", "type": "functional"}, "[7]": {"molecular_target": "T4, Alpha-1A adrenergic receptor (Homo sapiens, UniProt P35348)", "T4 sequence (P35348 whole entry)": "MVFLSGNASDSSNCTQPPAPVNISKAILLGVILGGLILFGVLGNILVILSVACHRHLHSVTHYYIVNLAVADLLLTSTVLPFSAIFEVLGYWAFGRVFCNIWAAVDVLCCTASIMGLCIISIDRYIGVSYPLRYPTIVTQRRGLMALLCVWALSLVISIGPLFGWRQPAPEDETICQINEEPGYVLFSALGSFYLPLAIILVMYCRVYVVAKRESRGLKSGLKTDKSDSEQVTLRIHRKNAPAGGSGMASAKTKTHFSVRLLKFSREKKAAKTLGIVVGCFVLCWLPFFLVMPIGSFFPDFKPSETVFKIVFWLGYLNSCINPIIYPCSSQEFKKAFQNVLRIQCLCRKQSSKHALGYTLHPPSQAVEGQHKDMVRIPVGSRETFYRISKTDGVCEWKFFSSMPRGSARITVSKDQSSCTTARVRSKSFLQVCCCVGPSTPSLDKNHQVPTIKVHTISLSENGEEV", "assay": "Binding affinity was tested on human Alpha-1A adrenergic receptor"}, "[8]": {"molecular_target": "T5, Alpha-1A adrenergic receptor (Rattus norvegicus, UniProt P43140)", "T5 sequence (P43140 whole entry)": "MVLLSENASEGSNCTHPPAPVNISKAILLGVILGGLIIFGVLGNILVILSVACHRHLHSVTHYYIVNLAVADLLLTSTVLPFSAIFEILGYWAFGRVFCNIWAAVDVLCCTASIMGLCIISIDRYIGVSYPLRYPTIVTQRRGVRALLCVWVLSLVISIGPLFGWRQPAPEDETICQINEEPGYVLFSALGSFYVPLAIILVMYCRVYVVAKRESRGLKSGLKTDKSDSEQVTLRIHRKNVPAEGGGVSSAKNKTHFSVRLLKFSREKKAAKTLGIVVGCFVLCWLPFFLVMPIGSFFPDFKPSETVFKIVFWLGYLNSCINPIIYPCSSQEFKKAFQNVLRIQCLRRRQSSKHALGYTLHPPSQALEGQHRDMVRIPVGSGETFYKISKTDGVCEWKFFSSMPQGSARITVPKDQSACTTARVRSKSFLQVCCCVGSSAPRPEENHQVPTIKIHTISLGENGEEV", "assay": "Binding affinity was tested on CEC-pretreated rat hippocampus Alpha-1A adrenergic receptor", "type": "tissue-based"}, "[9]": {"molecular_target": "T6, Alpha-1B adrenergic receptor (Rattus norvegicus, UniProt P15823)", "T6 sequence (P15823 whole entry)": "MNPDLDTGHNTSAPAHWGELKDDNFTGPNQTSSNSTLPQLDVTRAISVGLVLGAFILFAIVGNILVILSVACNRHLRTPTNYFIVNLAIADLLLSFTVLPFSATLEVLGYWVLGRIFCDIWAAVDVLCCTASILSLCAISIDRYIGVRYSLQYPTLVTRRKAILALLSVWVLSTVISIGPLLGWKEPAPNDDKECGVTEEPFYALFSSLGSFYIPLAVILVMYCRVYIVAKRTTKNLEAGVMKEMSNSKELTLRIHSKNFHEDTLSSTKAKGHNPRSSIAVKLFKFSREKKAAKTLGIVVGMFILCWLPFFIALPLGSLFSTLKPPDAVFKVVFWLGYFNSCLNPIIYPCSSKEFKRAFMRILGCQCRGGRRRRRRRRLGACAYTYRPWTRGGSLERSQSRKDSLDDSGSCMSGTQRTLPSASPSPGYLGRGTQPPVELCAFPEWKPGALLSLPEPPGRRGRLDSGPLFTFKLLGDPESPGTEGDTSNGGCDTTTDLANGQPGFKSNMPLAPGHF", "assay": "Binding affinity was tested on CEC-pretreated rat liver Alpha-1B adrenergic receptor"}, "Canis familiaris [10]": {"tested_on": "Canis familiaris", "assay": "(§1) In vivo dose (iv) for 50% inhibition of norepinephrine-mediated contraction of proximal urethra (ID50) with the dose (iv) for 25% reduction in systolic blood pressure (ED25) in anesthetized dogs", "type": "functional, Canis lupus familiaris, Artery"}, "[11]": {"assay": "Dose (iv) for 20% reduction of mean blood pressure in rat (ID20) with the dose for 50% inhibition of norepinephrine-mediated contraction of proximal urethra (ID50) in cat", "type": "functional"}, "[12]": {"molecular_target": "T1, 3-oxo-5-alpha-steroid 4-dehydrogenase 2", "assay": "Binding affinity for human 5-alpha reductase 2 isozyme"}, "[13]": {"molecular_target": "T7, 3-oxo-5-alpha-steroid 4-dehydrogenase 1 (Homo sapiens, UniProt P18405)", "T7 sequence (P18405 whole entry)": "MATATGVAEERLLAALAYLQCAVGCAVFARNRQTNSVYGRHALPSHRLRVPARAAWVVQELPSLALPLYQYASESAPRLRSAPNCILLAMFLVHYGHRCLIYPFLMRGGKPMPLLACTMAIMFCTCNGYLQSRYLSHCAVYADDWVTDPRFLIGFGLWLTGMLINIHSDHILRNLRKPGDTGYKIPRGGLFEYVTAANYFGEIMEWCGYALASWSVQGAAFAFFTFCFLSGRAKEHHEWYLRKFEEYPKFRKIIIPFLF", "assay": "Binding affinity for human 5 alpha reductase 1 isozyme"}, "[14]": {"assay": "Binding affinity on human prostatic 5-alpha reductase isozyme"}, "[15]": {"molecular_target": "T8, Steroid 5-alpha-reductase (Rattus norvegicus, UniProt P24008+P31214)", "T8 sequence (P24008 whole entry)": "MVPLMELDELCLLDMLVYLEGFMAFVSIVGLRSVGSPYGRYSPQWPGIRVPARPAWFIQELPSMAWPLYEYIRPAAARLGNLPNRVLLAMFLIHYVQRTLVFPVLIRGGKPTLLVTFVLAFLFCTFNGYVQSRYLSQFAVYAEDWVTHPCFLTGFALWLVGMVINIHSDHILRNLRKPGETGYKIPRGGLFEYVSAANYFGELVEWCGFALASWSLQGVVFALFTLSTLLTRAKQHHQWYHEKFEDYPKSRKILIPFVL", "T8 sequence (P31214 whole entry)": "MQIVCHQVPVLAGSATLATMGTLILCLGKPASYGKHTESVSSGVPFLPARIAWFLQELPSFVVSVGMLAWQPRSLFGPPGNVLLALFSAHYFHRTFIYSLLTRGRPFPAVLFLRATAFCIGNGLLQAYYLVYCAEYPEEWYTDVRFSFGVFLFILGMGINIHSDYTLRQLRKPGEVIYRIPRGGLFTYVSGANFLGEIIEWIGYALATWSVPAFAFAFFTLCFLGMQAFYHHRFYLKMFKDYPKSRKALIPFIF", "assay": "Binding affinity on rat 5-alpha reductase isozyme", "type": "protein assay"}, "[16]": {"assay": "as §1", "type": "functional"}, "[17]": {"molecular_target": "T9, 3-oxo-5-alpha-steroid 4-dehydrogenase 1 (Rattus norvegicus, UniProt P24008)", "T9 sequence (P24008 whole entry)": "T8 sequence (P24008 whole entry)", "assay": "Binding affinity on rat 5-alpha reductase-1 isozyme"}, "[18]": {"molecular_target": "T10, 3-oxo-5-alpha-steroid 4-dehydrogenase 2 (Rattus norvegicus, UniProt P31214)", "T10 sequence (P31214 whole entry)": "T8 sequence (P31214 whole entry)", "assay": "Binding affinity on rat 5-alpha reductase-2 isozyme"}}}
{"smiles": "CC(C)(C)NC(=O)[C@H]1CCC2C3CCC4=C(C#N)C(=O)CC[C@]4(C)C3CC[C@@]21C", "note": "(stereo not given in full)", "values": [{"measurement": "IC50", "setting": "[1]", "value": 2.9, "unit": "nM"}]}
{"smiles": "COc1ccc(CCN2CCC(c3nc(COCC(F)(F)F)c(-c4ccc(F)cc4)o3)CC2)cc1S(N)(=O)=O", "values": [{"measurement": "ED50", "setting": "Canis familiaris [2]", "value": 0.013, "unit": "mg/kg"}, {"measurement": "Ki", "setting": "[3]", "value": 25.1, "unit": "nM"}, {"measurement": "Ki", "setting": "[4]", "value": 15.8, "unit": "nM"}, {"measurement": "ED50", "setting": "Canis familiaris [5]", "value": 7.25, "unit": "mg/kg"}, {"measurement": "Ratio", "setting": "[6]", "value": 550}, {"measurement": "Ki", "setting": "[7]", "value": 0.2, "unit": "nM"}]}
{"smiles": "COc1ccccc1N1CCN(CCCC(=O)c2cccc3c(=O)c(C)c(-c4ccccc4)oc23)CC1", "values": [{"measurement": "IC50", "setting": "[8]", "value": 1.5, "unit": "nM"}, {"measurement": "IC50", "setting": "[9]", "value": 24, "unit": "nM"}, {"measurement": "Ratio", "setting": "Canis familiaris [10]", "value": 39}]}
{"smiles": "NC(=O)c1ccnc(NCCCN2CCN(c3cccc(Cl)c3)CC2)n1", "values": [{"measurement": "Ratio", "setting": "[11]", "value": 18}]}
{"smiles": "C[C@]12CCC(=O)C(Cl)=C1NCC1C2CC[C@@]2(C)C1CC[C@@H]2C(=O)Nc1cc(C(F)(F)F)ccc1C(F)(F)F", "note": "(stereo not given in full)", "values": [{"measurement": "IC50", "setting": "[12]", "value": "< 0.1", "unit": "nM"}, {"measurement": "Ki", "setting": "[13]", "value": 0.2, "unit": "nM"}]}
{"smiles": "CC(C)N(C(=O)c1ccc(CCC2CCC(=O)N(C)C2)cc1)C(C)C", "note": "(stereo not given)", "values": [{"measurement": "Ki", "setting": "[14]", "value": "> 20000", "unit": "nM"}, {"measurement": "Ki", "setting": "[15]", "value": "> 20000", "unit": "nM"}]}
{"smiles": "NC(=O)c1ccnc(NCCCN2CCN(c3ccccc3C3CC3)CC2)n1", "values": [{"measurement": "Ratio", "setting": "[11]", "value": 4}]}
{"smiles": "COc1ccccc1N1CCN(CCCNC(=O)c2ccccc2OCc2ccccc2)CC1", "values": [{"measurement": "Ratio", "setting": "[16]", "value": 16}]}
{"smiles": "CN1C(=O)CC[C@@H]2c3ccc(Cl)cc3CC[C@H]21", "note": "[BEXLOSTERIDE]", "values": [{"measurement": "Ki", "setting": "[17]", "value": 8, "unit": "nM"}, {"measurement": "Ki", "setting": "[18]", "value": 10000, "unit": "nM"}]}
{"smiles": "CC(C)(C)NC(=O)[C@H]1CC[C@H]2[C@@H]3CC[C@H]4NC(=O)C=C[C@]4(C)[C@H]3CC[C@]12C", "note": "[FINASTERIDE]", "values": [{"measurement": "Ki", "setting": "[13]", "value": 150, "unit": "nM"}]}
